Experimental data as given in patent US7223543B2, “Conjugated linoleic acid isomerase and a process for the production of conjugated linoleic acid” (Teagasc Dairy Products Research Centre, priority 2001, dated 2007).

Test system: B.breve 2258
Experiment: Growth inhibition of B.breve 2258 by trilinolein compared with free linoleic acid
Type: cell-based, Bifidobacterium breve
Settings: compared with similar concentrations of free linoleic acid
Description: B.breve NCFB 2258 was further investigated for ability to utilise triglyceride bound linoleic acid as substrate for CLA production. B.breve NCFB 2258 was inoculated from a fully grown culture into MRS broth with added cysteine (0.05%) and trilinolein (C18:2, cis-9, cis-12, 99% pure, Sigma Chemical Co.), soybean oil and sunflower oil (purchased from a local grocery store) containing known linoleic acid concentrations. The triglyceride mixtures were sterile-filtered through 0.45 μm […] filters and added as 5 mg/ml aqueous solutions in 2.5% (v/v) Tween 80. Substantial vortexing was required to dissolve the fat particles. The volume of the triglyceride stock solutions added was calculated to give a final concentration of 0.2 mg linoleic acid/ml of broth. B.breve 2258 was inoculated into MRS broth in the presence of the triglyceride substrates under anaerobic conditions at 37° C. and incubated for 48 h.

## CCCCC/C=C\C/C=C\CCCCCCCC(=O)OCC(COC(=O)CCCCCCC/C=C\C/C=C\CCCCC)OC(=O)CCCCCCC/C=C\C/C=C\CCCCC [trilinolein]
  growth inhibition of B.breve 2258: did not inhibit the growth of B.breve 2258 to the same extent as similar concentrations of free linoleic acid
